Laboratory results as given in PubChem BioAssay (NCI).
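In this assay, cells in 96-well plates receive the compound at five concentrations for 48 hours. Endpoints are linearly interpolated between the surrounding concentrations. GI50 is the concentration that inhibits growth by half. TGI: total growth inhibition.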

Assays:
Experiment in all cases: growth of human tumour cells (NCI), 48 h
786-0 renal = tested on: 786-0 renal
A498 renal = tested on: A498 renal
A549 NSCLC = tested on: A549 NSCLC
ACHN renal = tested on: ACHN renal
BT-549 breast = tested on: BT-549 breast
CAKI-1 renal = tested on: CAKI-1 renal
CCRF-CEM leukemia = tested on: CCRF-CEM leukemia
COLO 205 colon = tested on: COLO 205 colon
DU-145 prostate = tested on: DU-145 prostate
EKVX NSCLC = tested on: EKVX NSCLC
HCC-2998 colon = tested on: HCC-2998 colon
HCT-116 colon = tested on: HCT-116 colon
HCT-15 colon = tested on: HCT-15 colon
HL-60(TB) leukemia = tested on: HL-60(TB) leukemia
HOP-62 NSCLC = tested on: HOP-62 NSCLC
HOP-92 NSCLC = tested on: HOP-92 NSCLC
HS 578T breast = tested on: HS 578T breast
HT29 colon = tested on: HT29 colon
IGROV1 ovarian = tested on: IGROV1 ovarian
K-562 leukemia = tested on: K-562 leukemia
KM12 colon = tested on: KM12 colon
LOX IMVI melanoma = tested on: LOX IMVI melanoma
M14 melanoma = tested on: M14 melanoma
MALME-3M melanoma = tested on: MALME-3M melanoma
MCF7 breast = tested on: MCF7 breast
MDA-MB-231 breast = tested on: MDA-MB-231 breast
MDA-MB-435 = tested on: MDA-MB-435
MDA-MB-468 breast = tested on: MDA-MB-468 breast
MOLT-4 leukemia = tested on: MOLT-4 leukemia
NCI-H226 lung = tested on: NCI-H226 lung
NCI-H23 lung = tested on: NCI-H23 lung
NCI-H460 lung = tested on: NCI-H460 lung
NCI-H522 lung = tested on: NCI-H522 lung
NCI/ADR-RES ovarian = tested on: NCI/ADR-RES ovarian
OVCAR-3 ovarian = tested on: OVCAR-3 ovarian
OVCAR-4 ovarian = tested on: OVCAR-4 ovarian
OVCAR-5 ovarian = tested on: OVCAR-5 ovarian
OVCAR-8 ovarian = tested on: OVCAR-8 ovarian
PC-3 prostate = tested on: PC-3 prostate
RPMI-8226 leukemia = tested on: RPMI-8226 leukemia
RXF 393 renal = tested on: RXF 393 renal
SF-268 CNS = tested on: SF-268 CNS
SF-295 CNS = tested on: SF-295 CNS
SF-539 CNS = tested on: SF-539 CNS
SK-MEL-2 melanoma = tested on: SK-MEL-2 melanoma
SK-MEL-28 melanoma = tested on: SK-MEL-28 melanoma
SK-MEL-5 melanoma = tested on: SK-MEL-5 melanoma
SK-OV-3 ovarian = tested on: SK-OV-3 ovarian
SN12C renal = tested on: SN12C renal
SNB-19 CNS = tested on: SNB-19 CNS
SNB-75 CNS = tested on: SNB-75 CNS
SR leukemia = tested on: SR leukemia
SW-620 colon = tested on: SW-620 colon
T-47D breast = tested on: T-47D breast
TK-10 renal = tested on: TK-10 renal
U251 CNS = tested on: U251 CNS
UACC-257 melanoma = tested on: UACC-257 melanoma
UACC-62 melanoma = tested on: UACC-62 melanoma
UO-31 renal = tested on: UO-31 renal

For COc1cc2oc(-c3cccc(C(=O)Nc4ccc(Cl)cc4)c3)cc(=O)c2c(OCCNC(=O)[C@H](CO)NC(=O)OC(C)(C)C)c1OC, the GI50 (786-0 renal) was 19.7 µM, the TGI (786-0 renal) was greater than 100 µM and the GI50 (A498 renal) was 27.2 µM. It also gave a TGI (A498 renal) of 77.9 µM, a GI50 (A549 NSCLC) of 10.5 µM and a TGI (A549 NSCLC) greater than 100 µM. For the same molecule, the GI50 (ACHN renal) was 19.5 µM, the TGI (ACHN renal) was greater than 100 µM and the GI50 (BT-549 breast) was 3.06 µM. For the same molecule, the TGI (BT-549 breast) was 19.9 µM, the GI50 (CAKI-1 renal) was 5.8 µM and the TGI (CAKI-1 renal) was greater than 100 µM. The GI50 (CCRF-CEM leukemia) was 5.54 µM, the TGI (CCRF-CEM leukemia) was greater than 100 µM and the GI50 (COLO 205 colon) was 7.16 µM. The TGI (COLO 205 colon) was 71.6 µM, the GI50 (DU-145 prostate) was 17.8 µM and the TGI (DU-145 prostate) was greater than 100 µM. The GI50 (EKVX NSCLC) was 9.89 µM, the TGI (EKVX NSCLC) was greater than 100 µM and the GI50 (HCC-2998 colon) was 15.5 µM. The TGI (HCC-2998 colon) was 74 µM, the GI50 (HCT-116 colon) was 6.03 µM and the TGI (HCT-116 colon) was greater than 100 µM. For the same molecule, the GI50 (HCT-15 colon) was 7.43 µM, the TGI (HCT-15 colon) was greater than 100 µM and the GI50 (HL-60(TB) leukemia) was 5.41 µM. The TGI (HL-60(TB) leukemia) was 22.1 µM, the GI50 (HOP-62 NSCLC) was 16.1 µM and the TGI (HOP-62 NSCLC) was greater than 100 µM. It also gave a GI50 (HOP-92 NSCLC) of 4.24 µM, a TGI (HOP-92 NSCLC) greater than 100 µM and a GI50 (HS 578T breast) of 8.01 µM. It also gave a TGI (HS 578T breast) of 94.6 µM, a GI50 (HT29 colon) of 6.92 µM and a TGI (HT29 colon) of 57.4 µM. It also gave a GI50 (IGROV1 ovarian) of 10.7 µM, a TGI (IGROV1 ovarian) greater than 100 µM and a GI50 (K-562 leukemia) of 4.23 µM. The TGI (K-562 leukemia) was greater than 100 µM, the GI50 (KM12 colon) was 28.7 µM and the TGI (KM12 colon) was greater than 100 µM. For the same molecule, the GI50 (LOX IMVI melanoma) was 3.82 µM, the TGI (LOX IMVI melanoma) was 20.7 µM and the GI50 (M14 melanoma) was 8.53 µM. The TGI (M14 melanoma) was 55.6 µM, the GI50 (MALME-3M melanoma) was 11 µM and the TGI (MALME-3M melanoma) was 51.5 µM. For the same molecule, the GI50 (MCF7 breast) was 10.1 µM, the TGI (MCF7 breast) was greater than 100 µM and the GI50 (MDA-MB-231 breast) was 4.7 µM. It also gave a TGI (MDA-MB-231 breast) of 33.9 µM, a GI50 (MDA-MB-435) of 12.4 µM and a TGI (MDA-MB-435) of 42.6 µM. For the same molecule, the GI50 (MDA-MB-468 breast) was 13.9 µM, the TGI (MDA-MB-468 breast) was 35 µM and the GI50 (MOLT-4 leukemia) was 3.2 µM. It also gave a TGI (MOLT-4 leukemia) of 21.8 µM, a GI50 (NCI-H226 lung) of 13.8 µM and a TGI (NCI-H226 lung) greater than 100 µM. For the same molecule, the GI50 (NCI-H23 lung) was 14.9 µM, the TGI (NCI-H23 lung) was greater than 100 µM and the GI50 (NCI-H460 lung) was 6.48 µM. For the same molecule, the TGI (NCI-H460 lung) was greater than 100 µM, the GI50 (NCI-H522 lung) was 5.18 µM and the TGI (NCI-H522 lung) was greater than 100 µM. It also gave a GI50 (NCI/ADR-RES ovarian) of 51.4 µM, a TGI (NCI/ADR-RES ovarian) greater than 100 µM and a GI50 (OVCAR-3 ovarian) of 10.8 µM. It also gave a TGI (OVCAR-3 ovarian) greater than 100 µM, a GI50 (OVCAR-4 ovarian) of 9.86 µM and a TGI (OVCAR-4 ovarian) greater than 100 µM. The GI50 (OVCAR-5 ovarian) was 8.01 µM, the TGI (OVCAR-5 ovarian) was greater than 100 µM and the GI50 (OVCAR-8 ovarian) was 5.78 µM. The TGI (OVCAR-8 ovarian) was greater than 100 µM, the GI50 (PC-3 prostate) was 6.82 µM and the TGI (PC-3 prostate) was greater than 100 µM. For the same molecule, the GI50 (RPMI-8226 leukemia) was 2.85 µM, the TGI (RPMI-8226 leukemia) was greater than 100 µM and the GI50 (RXF 393 renal) was 4.2 µM. For the same molecule, the TGI (RXF 393 renal) was 22 µM, the GI50 (SF-268 CNS) was 21.5 µM and the TGI (SF-268 CNS) was greater than 100 µM. The GI50 (SF-295 CNS) was 12.4 µM, the TGI (SF-295 CNS) was 53.2 µM and the GI50 (SF-539 CNS) was 12.1 µM. It also gave a TGI (SF-539 CNS) of 45 µM, a GI50 (SK-MEL-2 melanoma) of 15.4 µM and a TGI (SK-MEL-2 melanoma) greater than 100 µM. It also gave a GI50 (SK-MEL-28 melanoma) of 9.5 µM, a TGI (SK-MEL-28 melanoma) of 28.2 µM and a GI50 (SK-MEL-5 melanoma) of 5.48 µM. For the same molecule, the TGI (SK-MEL-5 melanoma) was 19.6 µM, the GI50 (SK-OV-3 ovarian) was 79.2 µM and the TGI (SK-OV-3 ovarian) was greater than 100 µM. The GI50 (SN12C renal) was 8.47 µM, the TGI (SN12C renal) was greater than 100 µM and the GI50 (SNB-19 CNS) was 28.8 µM. The TGI (SNB-19 CNS) was greater than 100 µM, the GI50 (SNB-75 CNS) was 8.45 µM and the TGI (SNB-75 CNS) was greater than 100 µM. It also gave a GI50 (SR leukemia) of 3.01 µM, a TGI (SR leukemia) of 18.2 µM and a GI50 (SW-620 colon) of 30.1 µM. The TGI (SW-620 colon) was greater than 100 µM, the GI50 (T-47D breast) was 5.63 µM and the TGI (T-47D breast) was greater than 100 µM. It also gave a GI50 (TK-10 renal) of 19.9 µM, a TGI (TK-10 renal) greater than 100 µM and a GI50 (U251 CNS) of 17.8 µM. The TGI (U251 CNS) was greater than 100 µM, the GI50 (UACC-257 melanoma) was 12.6 µM and the TGI (UACC-257 melanoma) was 27.8 µM. It also gave a GI50 (UACC-62 melanoma) of 20.3 µM, a TGI (UACC-62 melanoma) greater than 100 µM and a GI50 (UO-31 renal) of 19.9 µM. It also gave a TGI (UO-31 renal) greater than 100 µM.
